# Test results as given in patent publication US20240300980A1, “HETEROCYCLIC COMPOUNDS AS KRAS INHIBITOR, AND PREPARATION THEREFOR AND USE THEREOF IN TREATMENT” (SHANGHAI KECHOW PHARMA, INC., priority 2021, published 2024).
# Test system: AGS cells (KRAS^G12D)
# Assay: Detection of cell proliferation in vitro by MTT/MTS method (cell activity experiment)
# Assay type: cell-based
# Conditions: Homo sapiens, AGS, 72 h, AGS cells; MTT/MTS; 3 days of drug treatment; read-out: AGS IC50
# Outline: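 KRAS G12D AGS cells seeded at 1000 per well, compound added 24 h later, 0.5% final DMSO. Viability read after 3 days of treatment by MTT (solubilised in DMSO) or MTS, 4 h, absorbance 490 nm. IC50 from dose–response curves versus DMSO control.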
row,SMILES,IC50 [nM]
1,"C#Cc1c(F)ccc2cc(O)cc(-c3cc4nc(OC[C@@]56CCCN5C[C@H](F)C6)c(C(F)(F)F)c(N5C[C@H]6CC[C@@H](C5)N6)c4cn3)c12 [Example 195, 4-(4-((1R,5S)-3,8-diazabicyclo[3.2.1]octan-3-yl)-2-(((2R,7aS)-2-fluorotetrahydro-1H-pyrrolizin-7a(5H)-yl)methoxy)-3-(trifluoromethyl)-1,6-naphthyridin-7-yl)-5-ethynyl-6-fluoronaphthalen-2-ol]",> 2500
2,"C#Cc1c(F)ccc2cc(O)cc(-c3ccc4c(N5CC6CCC(N6)C5=O)nc(OC[C@@]56CCCN5C[C@H](F)C6)nc4c3F)c12 (stereo partly drawn) [Example 214, 3-(7-(8-ethynyl-7-fluoro-3-hydroxynaphthalen-1-yl)-8-fluoro-2-(((2R,7aS)-2-fluorotetrahydro-1H-pyrrolizin-7a(5H)-yl)methoxy)quinazolin-4-yl)-3,8-diazabicyclo[3.2.1]octan-2-one]",> 10000
3,"CC1CCCc2cc(O)cc(-c3ccc4c(NCC5(N(C)C)CCC5)nc(OC[C@@]56CCCN5C[C@H](F)C6)nc4c3F)c21 (stereo partly drawn) [Example 427, 4-(4-(((1-(dimethylamino)cyclobutyl)methyl)amino)-8-fluoro-2-(((2R,7aS)-2-fluorotetrahydro-1H-pyrrolizin-7a(5H)-yl)methoxy)quinazolin-7-yl)-5-methyl-5,6,7,8-tetrahydronaphthalen-2-ol]",55
4,"Nc1cc(-c2ncc3c(N4C[C@H]5CC[C@@H](C4)N5)nc(OC[C@@]45CCCN4C[C@H](F)C5)nc3c2F)c2ccccc2c1 [Example 42, 4-(4-((1R,5S)-3,8-diazabicyclo[3.2.1]octan-3-yl)-8-fluoro-2-(((2R,7aS)-2-fluorotetrahydro-1H-pyrrolizin-7a(5H)-yl)methoxy)pyrido[4,3-d]pyrimidin-7-yl) naphthalen-2-amine]",109
5,"CC1CCCc2cc(O)cc(-c3ncc4c(N5C[C@H]6CC[C@@H](C5)N6)nc(OC[C@@]56CCCN5C[C@H](F)C6)nc4c3F)c21 (stereo partly drawn) [Example 224, 4-(4-((1R,5S)-3,8-diazabicyclo[3.2.1]octan-3-yl)-8-fluoro-2-(((2R,7aS)-2-fluorotetrahydro-1H-pyrrolizin-7a(5H)-yl)methoxy)pyrido[4,3-d]pyrimidin-7-yl)-5-methyl-5,6,7,8-tetrahydronaphthalen-2-ol]",4.8
6,"[O-][S+]1CCc2cc(O)cc(-c3ncc4c(N5C[C@H]6CC[C@@H](C5)N6)nc(OC[C@@]56CCCN5C[C@H](F)C6)nc4c3F)c21 (stereo partly drawn) [Example 252, 7-(4-((1R,5S)-3,8-diazabicyclo[3.2.1]octan-3-yl)-8-fluoro-2-(((2R,7aS)-2-fluorotetrahydro-1H-pyrrolizin-7a(5H)-yl)methoxy)pyrido[4,3-d]pyrimidin-7-yl)-5-hydroxy-2,3-dihydrobenzo[b]thiophene 1-oxide]",> 2500
7,"C#Cc1c(F)ccc2cc(O)cc(-c3cnc4c(N5C[C@H]6CC[C@@H](C5)N6)nc(OC[C@@]56CCCN5C[C@H](F)C6)nc4c3)c12 [Example 200, 4-(4-((1R,5S)-3,8-diazabicyclo[3.2.1]octan-3-yl)-2-(((2R,7aS)-2-fluorotetrahydro-1H-pyrrolizin-7a(5H)-yl)methoxy)pyrido[3,2-d]pyrimidin-7-yl)-5-ethynyl-6-fluoronaphthalen-2-ol]",> 2500
8,"Oc1cc(-c2ncc3c(N4C[C@H]5CC[C@@H](C4)N5)nc(OCC4(CN5CCCC5)CC4)nc3c2F)c2c(F)cccc2c1 [Example 6, 4-(4-((1R,5S)-3,8-diazabicyclo[3.2.1]octan-3-yl)-8-fluoro-2-((1-(pyrrolidin-1-ylmethyl)cyclopropyl)methoxy)pyrido[4,3-d]pyrimidin-7-yl)-5-fluoronaphthalen-2-ol]",14
9,"CC1CCc2cc(O)cc(-c3c(Cl)cc4c(N5C[C@H]6CC[C@@H](C5)N6)nc(OC[C@@]56CCCN5C[C@H](F)C6)nc4c3F)c21 (stereo partly drawn) [Example 304, 7-(4-((1R,5S)-3,8-diazabicyclo[3.2.1]octan-3-yl)-6-chloro-8-fluoro-2-(((2R,7aS)-2-fluorotetrahydro-1H-pyrrolizin-7a(5H)-yl)methoxy)quinazolin-7-yl)-1-methyl-2,3-dihydro-1H-inden-5-ol]",35
10,"C#Cc1c(F)ccc2cc(O)cc(-c3cc4nc(OC[C@@]56CCCN5C[C@H](F)C6)c(C#N)c(N5C[C@H]6CC[C@@H](C5)N6)c4cn3)c12 [Example 188, 4-((1R,5S)-3,8-diazabicyclo[3.2.1]octan-3-yl)-7-(8-ethynyl-7-fluoro-3-hydroxynaphthalen-1-yl)-2-(((2R,7aS)-2-fluorotetrahydro-1H-pyrrolizin-7a(5H)-yl)methoxy)-1,6-naphthyridine-3-carbonitrile]",1550
11,"C#Cc1c(F)ccc2cc(O)cc(-c3c(CCC#N)cc4c(N5C[C@H]6CC[C@@H](C5)N6)nc(OC[C@@]56CCCN5C[C@H](F)C6)nc4c3F)c12 [Example 378, 3-(4-((1R,5S)-3,8-diazabicyclo[3.2.1]octan-3-yl)-7-(8-ethynyl-7-fluoro-3-hydroxynaphthalen-1-yl)-8-fluoro-2-(((2R,7aS)-2-fluorotetrahydro-1H-pyrrolizin-7a(5H)-yl)methoxy)quinazolin-6-yl)propanenitrile]",160
12,"CC(C)C1CCc2cc(O)cc(-c3ncc4c(N5C[C@H]6CC[C@@H](C5)N6)nc(OC[C@@]56CCCN5C[C@H](F)C6)nc4c3F)c21 (stereo partly drawn) [Example 268, 7-(4-((1R,5S)-3,8-diazabicyclo[3.2.1]octan-3-yl)-8-fluoro-2-(((2R,7aS)-2-fluorotetrahydro-1H-pyrrolizin-7a(5H)-yl)methoxy)pyrido[4,3-d]pyrimidin-7-yl)-1-isopropyl-2,3-dihydro-1H-inden-5-ol]",4000
13,"CCC1CCc2cc(O)cc(-c3ccc4c(NCC5(N(C)C)CCC5)nc(OC[C@@]56CCCN5C[C@H](F)C6)nc4c3F)c21 (stereo partly drawn) [Example 429, 7-(4-(((1-(dimethylamino)cyclobutyl)methyl)amino)-8-fluoro-2-(((2R,7aS)-2-fluorotetrahydro-1H-pyrrolizin-7a(5H)-yl)methoxy)quinazolin-7-yl)-1-ethyl-2,3-dihydro-1H-inden-5-ol]",75
14,"CN1CCCc2cc(O)cc(-c3ncc4c(N5C[C@H]6CC[C@@H](C5)N6)nc(OC[C@@]56CCCN5C[C@H](F)C6)nc4c3F)c21 [Example 359, 8-(4-((1R,5S)-3,8-diazabicyclo[3.2.1]octan-3-yl)-8-fluoro-2-(((2R,7aS)-2-fluorotetrahydro-1H-pyrrolizin-7a(5H)-yl)methoxy)pyrido[4,3-d]pyrimidin-7-yl)-1-methyl-1,2,3,4-tetrahydroquinolin-6-ol]",35
15,"C#Cc1c(F)ccc2cc(O)cc(-c3ccc4c(N5C[C@H]6CC[C@@H](C5)N6)c(C(F)(F)F)c(OC[C@@]56CCCN5C[C@H](F)C6)nc4c3F)c12 [Example 185, 4-(4-((1R,5S)-3,8-diazabicyclo[3.2.1]octan-3-yl)-8-fluoro-2-(((2R,7aS)-2-fluorotetrahydro-1H-pyrrolizin-7a(5H)-yl)methoxy)-3-(trifluoromethyl)quinolin-7-yl)-5-ethynyl-6-fluoronaphthalen-2-ol]",1350
16,"CCc1cccc2cc(O)cc(-c3ncc4c(N5C[C@H]6CC[C@@H](C5)N6)c(C#N)c(OC[C@@]56CCCN5C[C@H](F)C6)nc4c3F)c12 [Example 190, 4-((1R,5S)-3,8-diazabicyclo[3.2.1]octan-3-yl)-7-(8-ethyl-3-hydroxynaphthalen-1-yl)-8-fluoro-2-(((2R,7aS)-2-fluorotetrahydro-1H-pyrrolizin-7a(5H)-yl)methoxy)-1,6-naphthyridine-3-carbonitrile]",150
